Results from US20230210108A1, “ANTIMICROBIAL COATING FOR POLYMERIC FOOD PACKAGING” (VACOPAK INDUSTRIES LTD., priority 2020, published 2023).

What was measured:
[1] = system: Gram-negative bacteria E. Coli; experiment: Antimicrobial activity of coatings on PET surfaces against Gram-negative bacteria (CFU count); type: cell-based; conditions: agent 5 mg/ml embedded in chitosan or alginate matrix, coated on PET; FIG. 5A
Description: (§1) Air plasma was applied onto each surface for three (3) minutes prior to coating. The surfaces used in the Examples were polyethylene (PET) sheets. The coating composition was prepared by suspending polymer(s) in water together with the antimicrobial agent(s). The coating composition was then applied on the surface, forming a layer of about 25 µm, using BIUGED and BGD219 instruments in a speed of 6 mm/sec, as shown in FIG. 4. Each coating composition was prepared a few hours, or about 24 hours prior to being applied on the surface. The antimicrobial activity of several coatings was tested against Gram-negative bacteria E. Coli and Gram-positive bacteria Listeria (FIGS. 5A and 5B, respectively, n=3 per each test). Each test was repeated twice (suffix A and B; in FIGS. 5A to 5B).

[2] = system: Gram-positive bacteria Listeria; experiment: Antimicrobial activity of coatings on PET surfaces against Gram-positive bacteria (CFU count); type: cell-based; conditions: agent 5 mg/ml embedded in chitosan or alginate matrix, coated on PET; FIG. 5B
Description: as §1

Row | Molecule | reduction of bacterial count (CFU) [1] | reduction of viral count, as measured in colony-forming units (CFU) [2]
1 | O=C1O[C@H]([C@@H](O)CO)C(O)=C1O [ascorbic acid, Ascorbic acid] | at least one order of magnitude | at least one order of magnitude
2 | CCCCCCCCCCCC(=O)N[C@@H](CCCN=C(N)N)C(=O)OCC [lauryl alginate, Lauryl alginate] | at least one order of magnitude | at least one order of magnitude
3 | Nisin | – | high cytotoxicity
